US20220356163A1, “SMALL MOLECULE INHIBITORS OF Id PROTEINS” (MEMORIAL SLOAN KETTERING CANCER CENTER, priority 2019, published 2022)

Target: T1, ID1 (Homo sapiens, UniProt P41134)
T1 sequence (P41134 1-155): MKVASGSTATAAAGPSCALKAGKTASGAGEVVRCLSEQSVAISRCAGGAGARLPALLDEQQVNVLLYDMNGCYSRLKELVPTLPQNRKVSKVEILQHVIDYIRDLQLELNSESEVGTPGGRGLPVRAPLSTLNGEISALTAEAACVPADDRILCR
Assay: Knockdown of Id1 in TFK1 cell cultures
Type: cell-based
Set-up: endogenous in cells; host or cells: TFK1
Conditions: TFK1, FIG. 21
From the text: Following the methods described herein (see, e.g., Examples 12-13), AGX-A and AGX51 were compared for their ability to mediate Id knockdown in cell cultures. FIG. 21 illustrates side-by-side comparative effects of AGX51 and AGX-A for knockdown of Id1 in TFK1 cell cultures, and FIG. 22 illustrates side-by-side comparative effects of AGX51 and AGX-A for knockdown of Id3 in TFK1 cell cultures.

COc1ccccc1C(CCNCc1ccccc1)c1ccc(OC(C)C)cc1 (stereo not shown) [AGX-A, N-benzyl-3-(4-isopropoxyphenyl)-3-(2-methoxyphenyl)propan-1-anine] was tested. Which “Id1 knockdown potency vs AGX51” value did it give?
Its value is “superior anti-Id1 and anti-Id3 potency compared to AGX51”.
